Reference: ChEMBL document CHEMBL4732090, “Preparation of new 1,3-dibenzyl tetrahydropyridinylidene ammonium salts and their antimicrobial and anticellular activities” (Eur J Med Chem, 2021)

Legend:
L6 = assay: Cytotoxicity against rat L6 cells after 70 hrs by Alamar blue assay; assay type: cell-based; settings: L6, 70 h, read-out: IC50
Plasmodium falciparum [1] = assay: Antiplasmodial activity against Plasmodium falciparum NF54 erythrocytic stages assessed as reduction in [3H]hypoxanthine incorporation measured after 48 hrs by liquid scintillation counting method; assay type: functional, organism-based
[2] = Selectivity index, ratio of IC50 for rat L6 cells to IC50 for chloroquine and pyrimethamine resistant Plasmodium falciparum K1; assay type: toxicity; settings: read-out: Ratio IC50
Escherichia coli = assay: Antibacterial activity against Escherichia coli ATCC 25922 assessed as diameter of inhibition zone at 10 mg/ml by disk diffusion assay; assay type: functional; settings: read-out: DIZ
Candida albicans = assay: Antifungal activity against Candida albicans ATCC 90028 assessed as diameter of inhibition zone at 10 mg/ml by disk diffusion assay; assay type: functional; settings: read-out: DIZ
HCT-116 = assay: Cytotoxicity against human HCT-116 cells assessed as inhibition of cell growth at 50 uM after 72 hrs by XTT assay relative to control; assay type: functional
Plasmodium falciparum [3] = assay: Antiplasmodial activity against chloroquine and pyrimethamine resistant Plasmodium falciparum K1 strain; assay type: functional, organism-based
U-251 = assay: Cytotoxicity against human U-251 cells assessed as inhibition of cell growth at 50 uM after 72 hrs by XTT assay relative to control; assay type: functional
[4] = Selectivity index, ratio of IC50 for rat L6 cells to IC50 for Trypanosoma brucei rhodesiense STIB900; assay type: toxicity; settings: read-out: Ratio IC50
Pseudomonas aeruginosa = assay: Antibacterial activity against Pseudomonas aeruginosa ATCC 27853 assessed as diameter of inhibition zone at 10 mg/ml by disk diffusion assay; assay type: functional; settings: read-out: DIZ
[5] = tested on: Trypanosoma brucei rhodesiense; assay: Trypanocidal activity against Trypanosoma brucei rhodesiense STIB900 incubated for 70 hrs by Alamar blue assay; assay type: functional, organism-based; settings: STIB900, 70 h
[6] = Selectivity index, ratio of IC50 for rat L6 cells to IC50 for Plasmodium falciparum NF54; assay type: toxicity; settings: read-out: Ratio IC50
Staphylococcus aureus = assay: Antibacterial activity against Staphylococcus aureus ATCC 29213 assessed as diameter of inhibition zone at 10 mg/ml by disk diffusion assay; assay type: functional; settings: read-out: DIZ
[7] = tested on: Staphylococcus epidermidis; assay: Antibacterial activity against Staphylococcus epidermis ATCC 12228 assessed as diameter of inhibition zone at 10 mg/ml by disk diffusion assay; assay type: functional; settings: read-out: DIZ

Question: For `CC1(C)C(Cc2ccc(Cl)cc2)C(=[N+]2CCCC2)C=CN1Cc1ccc(Cl)cc1` (racemic), which IC50 (L6) is on record?
Answer: 12600 nM

Question: What about the IC50 (Plasmodium falciparum [1]) of the same molecule?
Answer: 1.4 nM

Question: What about the selectivity ratio [2] of the same molecule?
Answer: 7860

Question: What about the zone of inhibition at 10000 µg/mL (Escherichia coli) of the same molecule?
Answer: 15 mm

Question: What about the zone of inhibition at 10000 µg/mL (Candida albicans) of the same molecule?
Answer: 20 mm

Question: What about the inhibition at 50 µM (HCT-116) of the same molecule?
Answer: 100%

Question: What about the IC50 (Plasmodium falciparum [3]) of the same molecule?
Answer: 1.6 nM

Question: And the inhibition at 50 µM (U-251)?
Answer: 100%

Question: What about the selectivity ratio [4] of the same molecule?
Answer: 73.9

Question: What about the zone of inhibition at 10000 µg/mL (Pseudomonas aeruginosa) of the same molecule?
Answer: 7 mm

Question: And the IC50 [5]?
Answer: 170 nM

Question: And the selectivity ratio [6]?
Answer: 8980

Question: And the zone of inhibition at 10000 µg/mL (Staphylococcus aureus)?
Answer: 21 mm

Question: What about the zone of inhibition at 10000 µg/mL [7] of the same molecule?
Answer: 34 mm

Question: Which IC50 (L6) does the source give for `CC1(C)C(Cc2ccc(C(F)(F)F)cc2)C(=[N+]2CCCC2)C=CN1Cc1ccc(C(F)(F)F)cc1` (racemic) here?
Answer: 26400 nM

Question: What about the IC50 (Plasmodium falciparum [1]) of the same molecule?
Answer: 8.3 nM

Question: What about the selectivity ratio [2] of the same molecule?
Answer: 8520

Question: What about the zone of inhibition at 10000 µg/mL (Escherichia coli) of the same molecule?
Answer: 15 mm

Question: And the zone of inhibition at 10000 µg/mL (Candida albicans)?
Answer: 25 mm

Question: What about the inhibition at 50 µM (HCT-116) of the same molecule?
Answer: 100%

Question: And the IC50 (Plasmodium falciparum [3])?
Answer: 3.1 nM

Question: What about the inhibition at 50 µM (U-251) of the same molecule?
Answer: 100%

Question: And the selectivity ratio [4]?
Answer: 62.9

Question: And the zone of inhibition at 10000 µg/mL (Pseudomonas aeruginosa)?
Answer: 7 mm

Question: And the IC50 [5]?
Answer: 420 nM

Question: What about the selectivity ratio [6] of the same molecule?
Answer: 3180

Question: What about the zone of inhibition at 10000 µg/mL (Staphylococcus aureus) of the same molecule?
Answer: 22 mm

Question: And the zone of inhibition at 10000 µg/mL [7]?
Answer: 31 mm

Question: For `CC1(C)C(Cc2ccc(Cl)cc2)C(=[N+]2CCCCC2)C=CN1Cc1ccc(Cl)cc1` (racemic), which IC50 (L6) is on record?
Answer: 11100 nM

Question: And the IC50 (Plasmodium falciparum [1])?
Answer: 3.8 nM

Question: What about the selectivity ratio [2] of the same molecule?
Answer: 29200

Question: What about the zone of inhibition at 10000 µg/mL (Escherichia coli) of the same molecule?
Answer: 14 mm

Question: And the zone of inhibition at 10000 µg/mL (Candida albicans)?
Answer: 26 mm

Question: What about the inhibition at 50 µM (HCT-116) of the same molecule?
Answer: 100%

Question: And the IC50 (Plasmodium falciparum [3])?
Answer: 0.38 nM

Question: And the inhibition at 50 µM (U-251)?
Answer: 100%

Question: What about the selectivity ratio [4] of the same molecule?
Answer: 79.3

Question: And the zone of inhibition at 10000 µg/mL (Pseudomonas aeruginosa)?
Answer: 7 mm

Question: And the IC50 [5]?
Answer: 140 nM

Question: What about the selectivity ratio [6] of the same molecule?
Answer: 2920

Question: And the zone of inhibition at 10000 µg/mL (Staphylococcus aureus)?
Answer: 22 mm

Question: What about the zone of inhibition at 10000 µg/mL [7] of the same molecule?
Answer: 28 mm

Question: For `CC(C)(C)c1ccc(CC2C(=[N+]3CCCC3)C=CN(Cc3ccccc3)C2(C)C)cc1` (racemic), which IC50 (L6) is on record?
Answer: 940 nM

Question: What about the IC50 (Plasmodium falciparum [1]) of the same molecule?
Answer: 30 nM

Question: What about the zone of inhibition at 10000 µg/mL (Escherichia coli) of the same molecule?
Answer: 15 mm

Question: And the zone of inhibition at 10000 µg/mL (Candida albicans)?
Answer: 22 mm

Question: And the inhibition at 50 µM (HCT-116)?
Answer: 100%

Question: And the inhibition at 50 µM (U-251)?
Answer: 100%

Question: And the selectivity ratio [4]?
Answer: 47

Question: What about the zone of inhibition at 10000 µg/mL (Pseudomonas aeruginosa) of the same molecule?
Answer: 0 mm

Question: What about the IC50 [5] of the same molecule?
Answer: 20 nM

Question: What about the selectivity ratio [6] of the same molecule?
Answer: 31.3

Question: And the zone of inhibition at 10000 µg/mL (Staphylococcus aureus)?
Answer: 22 mm

Question: What about the zone of inhibition at 10000 µg/mL [7] of the same molecule?
Answer: 24 mm

Question: With `CC1(C)C(Cc2c(Cl)cccc2Cl)C(=[N+]2CCCC2)C=CN1Cc1ccc(Cl)cc1` (racemic) as the molecule, how does the IC50 (L6) read?
Answer: 4530 nM

Question: What about the IC50 (Plasmodium falciparum [1]) of the same molecule?
Answer: 3.6 nM

Question: And the selectivity ratio [2]?
Answer: 755

Question: What about the zone of inhibition at 10000 µg/mL (Escherichia coli) of the same molecule?
Answer: 15 mm

Question: And the zone of inhibition at 10000 µg/mL (Candida albicans)?
Answer: 20 mm

Question: What about the inhibition at 50 µM (HCT-116) of the same molecule?
Answer: 100%

Question: What about the IC50 (Plasmodium falciparum [3]) of the same molecule?
Answer: 6 nM

Question: And the inhibition at 50 µM (U-251)?
Answer: 100%

Question: And the selectivity ratio [4]?
Answer: 87.1

Question: And the zone of inhibition at 10000 µg/mL (Pseudomonas aeruginosa)?
Answer: 12 mm

Question: What about the IC50 [5] of the same molecule?
Answer: 52 nM

Question: What about the selectivity ratio [6] of the same molecule?
Answer: 1260

Question: What about the zone of inhibition at 10000 µg/mL (Staphylococcus aureus) of the same molecule?
Answer: 21 mm

Question: And the zone of inhibition at 10000 µg/mL [7]?
Answer: 33 mm
